The values that follow are results of earlier work, collected in patent US11666686B2, “Amtimicrobial silicones” (WYNNVISION, LLC, priority 2020, dated 2023).

In general, pKa refers to the pH at which an ionisable group is half protonated. On to `CCCCCCCCCCCCCCN(C)C` [C14, N,N-dimethyltetradecylamine], for which the pKa is roughly 10.
